For 22 substances, target mRNA inhibition results are on record in the OligoGym collection.

Values joined by “and” are separate entries in the source; they are usually repeats but may differ in a detail not shown here. Equal values may be shown once. HELM strings list units from the 5' end as sugar, base in round brackets, then linkage (d deoxyribose, r ribose, m 2'-O-methyl, p phosphodiester). Methylation of C is not given here. [moe] = 2'-O-(2-methoxyethyl) (MOE); [cEt] = constrained ethyl (cEt); [sp] = phosphorothioate linkage

For one series, the target named is HBV. To be noted: ASO, HepG2, 0.0092593 µM.
Turning to “RNA1{[moe](T)[sp].[moe](G)[sp].[moe](A)[sp].d(A)[sp].d(G)[sp].d(C)[sp].d(G)[sp].d(A)[sp].d(A)[sp].d(G)[sp].d(T)[sp].d(G)[sp].[moe](C)[sp].[moe](A)[sp].[moe](C)[sp].[moe](A)}$$$$V2.0”, the target mRNA inhibition was 11%.

Still in this series, the particulars now being: ASO, HepG2, 0.0277778 µM.
On to “RNA1{[moe](T)[sp].[moe](G)[sp].[moe](A)[sp].d(A)[sp].d(G)[sp].d(C)[sp].d(G)[sp].d(A)[sp].d(A)[sp].d(G)[sp].d(T)[sp].d(G)[sp].[moe](C)[sp].[moe](A)[sp].[moe](C)[sp].[moe](A)}$$$$V2.0”, for which the target mRNA inhibition amounted to 22%.

The same series, now with this note: ASO, HepG2, 0.07 µM.
Regarding “RNA1{[moe](T)[sp].[cEt](A)[sp].d(T)[sp].d(G)[sp].d(C)[sp].d(C)[sp].d(T)[sp].d(A)[sp].d(C)[sp].d(A)[sp].d(G)[sp].d(C)[sp].[cEt](C)[sp].[moe](T)[sp].[cEt](C)[sp].[moe](C)}$$$$V2.0”, the target mRNA inhibition is 54% and 51%.

For “RNA1{[moe](T)[sp].[cEt](C)[sp].[cEt](C)[sp].d(A)[sp].d(C)[sp].d(C)[sp].d(A)[sp].d(C)[sp].d(G)[sp].d(A)[sp].d(G)[sp].d(T)[sp].d(C)[sp].[cEt](T)[sp].[cEt](A)[sp].[moe](G)}$$$$V2.0”, the target mRNA inhibition is 54% and 44%.

In the case of “RNA1{[moe](T)[sp].[cEt](C)[sp].d(C)[sp].d(A)[sp].d(C)[sp].d(C)[sp].d(A)[sp].d(C)[sp].d(G)[sp].d(A)[sp].d(G)[sp].d(T)[sp].[cEt](C)[sp].[moe](T)[sp].[cEt](A)[sp].[moe](G)}$$$$V2.0”, the target mRNA inhibition is 71% and 53%.

In the case of “RNA1{[moe](T)[sp].[cEt](G)[sp].[cEt](A)[sp].d(G)[sp].d(G)[sp].d(C)[sp].d(C)[sp].d(C)[sp].d(A)[sp].d(C)[sp].d(T)[sp].d(C)[sp].d(C)[sp].[cEt](C)[sp].[cEt](A)[sp].[moe](T)}$$$$V2.0”, the target mRNA inhibition is 56% and 80%.

For “RNA1{[moe](T)[sp].[cEt](G)[sp].d(A)[sp].d(A)[sp].d(G)[sp].d(C)[sp].d(G)[sp].d(A)[sp].d(A)[sp].d(G)[sp].d(T)[sp].d(G)[sp].[cEt](C)[sp].[moe](A)[sp].[cEt](C)[sp].[moe](A)}$$$$V2.0”, the target mRNA inhibition is 76% and 71%.

Turning to “RNA1{[moe](T)[sp].[cEt](T)[sp].d(A)[sp].d(T)[sp].d(G)[sp].d(C)[sp].d(C)[sp].d(T)[sp].d(A)[sp].d(C)[sp].d(A)[sp].d(G)[sp].[cEt](C)[sp].[moe](C)[sp].[cEt](T)[sp].[moe](C)}$$$$V2.0”, the target mRNA inhibition was 50% and 56%.

Take “RNA1{[moe](T)[sp].[cEt](T)[sp].d(C)[sp].d(C)[sp].d(G)[sp].d(C)[sp].d(A)[sp].d(G)[sp].d(T)[sp].d(A)[sp].d(T)[sp].d(G)[sp].[cEt](G)[sp].[moe](A)[sp].[cEt](T)[sp].[moe](C)}$$$$V2.0”: the target mRNA inhibition was 50% and 39%.

In the case of “RNA1{[moe](T)[sp].[cEt](T)[sp].d(T)[sp].d(A)[sp].d(T)[sp].d(G)[sp].d(C)[sp].d(C)[sp].d(T)[sp].d(A)[sp].d(C)[sp].d(A)[sp].[cEt](G)[sp].[moe](C)[sp].[cEt](C)[sp].[moe](T)}$$$$V2.0”, the target mRNA inhibition was 8% and 1%.

In the case of “RNA1{[moe](T)[sp].[moe](A)[sp].[moe](T)[sp].d(G)[sp].d(C)[sp].d(C)[sp].d(T)[sp].d(A)[sp].d(C)[sp].d(A)[sp].d(G)[sp].d(C)[sp].[moe](C)[sp].[moe](T)[sp].[moe](C)[sp].[moe](C)}$$$$V2.0”, the target mRNA inhibition was 49% and 46%.

With “RNA1{[moe](T)[sp].[moe](C)[sp].[moe](C)[sp].[moe](G)[sp].[moe](C)[sp].d(A)[sp].d(G)[sp].d(T)[sp].d(A)[sp].d(T)[sp].d(G)[sp].d(G)[sp].d(A)[sp].d(T)[sp].[moe](C)[sp].[moe](G)}$$$$V2.0”, the target mRNA inhibition was 75% and 59%.

“RNA1{[moe](T)[sp].[moe](C)[sp].[moe](C)[sp].[moe](G)[sp].d(C)[sp].d(A)[sp].d(G)[sp].d(T)[sp].d(A)[sp].d(T)[sp].d(G)[sp].d(G)[sp].d(A)[sp].[moe](T)[sp].[moe](C)[sp].[moe](G)[sp].[moe](G)}$$$$V2.0”: the target mRNA inhibition is 72% and 65%.

Turning to “RNA1{[moe](T)[sp].[moe](C)[sp].d(C)[sp].d(G)[sp].d(C)[sp].d(A)[sp].d(G)[sp].d(T)[sp].d(A)[sp].d(T)[sp].d(G)[sp].[moe](G)[sp].[moe](A)[sp].[moe](T)[sp].[moe](C)[sp].[moe](G)[sp].[moe](G)}$$$$V2.0”, the target mRNA inhibition is 74% and 70%.

As for “RNA1{[moe](T)[sp].[moe](C)[sp].d(C)[sp].d(G)[sp].d(C)[sp].d(A)[sp].d(G)[sp].d(T)[sp].d(A)[sp].d(T)[sp].d(G)[sp].[moe](G)[sp].[moe](A)[sp].[moe](T)[sp].[moe](C)[sp].[moe](G)}$$$$V2.0”, the target mRNA inhibition was 70% and 62%.

“RNA1{[moe](T)[sp].[moe](G)[sp].[moe](A)[sp].[moe](A)[sp].[moe](G)[sp].d(C)[sp].d(G)[sp].d(A)[sp].d(A)[sp].d(G)[sp].d(T)[sp].d(G)[sp].d(C)[sp].d(A)[sp].[moe](C)[sp].[moe](A)}$$$$V2.0”: the target mRNA inhibition was 59% and 47%.

With “RNA1{[moe](T)[sp].[moe](G)[sp].[moe](A)[sp].[moe](G)[sp].[moe](G)[sp].[moe](C)[sp].d(A)[sp].d(T)[sp].d(A)[sp].d(G)[sp].d(C)[sp].d(A)[sp].d(G)[sp].d(C)[sp].d(A)[sp].[moe](G)[sp].[moe](G)}$$$$V2.0”, the target mRNA inhibition was 58% and 44%.

Consider “RNA1{[moe](T)[sp].[moe](G)[sp].[moe](A)[sp].d(A)[sp].d(G)[sp].d(C)[sp].d(G)[sp].d(A)[sp].d(A)[sp].d(G)[sp].d(T)[sp].d(G)[sp].[moe](C)[sp].[moe](A)[sp].[moe](C)[sp].[moe](A)}$$$$V2.0”, for which the target mRNA inhibition was 76% and 66%.

For the substance “RNA1{[moe](T)[sp].[moe](G)[sp].[moe](A)[sp].d(G)[sp].d(A)[sp].d(G)[sp].d(A)[sp].d(A)[sp].d(G)[sp].d(T)[sp].d(C)[sp].d(C)[sp].d(A)[sp].[cEt](C)[sp].[cEt](C)[sp].[cEt](A)}$$$$V2.0”, the target mRNA inhibition was 35% and 41%.

In the case of “RNA1{[moe](T)[sp].[moe](G)[sp].[moe](C)[sp].d(A)[sp].d(G)[sp].d(A)[sp].d(G)[sp].d(G)[sp].d(T)[sp].d(G)[sp].d(A)[sp].d(A)[sp].[moe](G)[sp].[moe](C)[sp].[moe](G)[sp].[moe](A)[sp].[moe](A)}$$$$V2.0”, the target mRNA inhibition was 75% and 63%.

For “RNA1{[moe](T)[sp].[moe](G)[sp].[moe](C)[sp].d(A)[sp].d(G)[sp].d(A)[sp].d(G)[sp].d(G)[sp].d(T)[sp].d(G)[sp].d(A)[sp].d(A)[sp].d(G)[sp].[cEt](C)[sp].[cEt](G)[sp].[cEt](A)}$$$$V2.0”, the target mRNA inhibition is 78% and 79%.

On to “RNA1{[moe](T)[sp].[moe](G)[sp].[moe](G)[sp].[moe](A)[sp].d(G)[sp].d(C)[sp].d(C)[sp].d(A)[sp].d(C)[sp].d(C)[sp].d(A)[sp].d(G)[sp].d(C)[sp].[moe](A)[sp].[moe](G)[sp].[moe](G)}$$$$V2.0”, for which the target mRNA inhibition was 47% and 35%.

As for “RNA1{[moe](T)[sp].[moe](G)[sp].[moe](G)[sp].d(A)[sp].d(G)[sp].d(C)[sp].d(C)[sp].d(A)[sp].d(C)[sp].d(C)[sp].d(A)[sp].d(G)[sp].[moe](C)[sp].[moe](A)[sp].[moe](G)[sp].[moe](G)}$$$$V2.0”, the target mRNA inhibition is 58% and 57%.

Take “RNA1{[moe](T)[sp].[moe](G)[sp].[moe](G)[sp].d(A)[sp].d(G)[sp].d(C)[sp].d(C)[sp].d(A)[sp].d(C)[sp].d(C)[sp].d(A)[sp].d(G)[sp].d(C)[sp].[cEt](A)[sp].[cEt](G)[sp].[cEt](G)}$$$$V2.0”: the target mRNA inhibition is 60% and 67%.

Still in this series, the particulars now being: ASO, HepG2, 0.0833333 µM.
On to “RNA1{[moe](T)[sp].[moe](G)[sp].[moe](A)[sp].d(A)[sp].d(G)[sp].d(C)[sp].d(G)[sp].d(A)[sp].d(A)[sp].d(G)[sp].d(T)[sp].d(G)[sp].[moe](C)[sp].[moe](A)[sp].[moe](C)[sp].[moe](A)}$$$$V2.0”, for which the target mRNA inhibition came out at 44%.

Still in this series, the particulars now being: ASO, HepG2, 0.25 µM.
“RNA1{[moe](T)[sp].[moe](G)[sp].[moe](A)[sp].d(A)[sp].d(G)[sp].d(C)[sp].d(G)[sp].d(A)[sp].d(A)[sp].d(G)[sp].d(T)[sp].d(G)[sp].[moe](C)[sp].[moe](A)[sp].[moe](C)[sp].[moe](A)}$$$$V2.0”: the target mRNA inhibition is 64%.
